The subject of experiment [1] is erythroid progenitor cells (EPCs). As to the kind of experiment: Fetal hemoglobin (HbF) ELISA in day 7 erythroid progenitor cells.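 Also: for fetal hemoglobin induction normalized to vehicle-treated cells.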 The conditions noted are these: Homo sapiens, Erythroid progenitor cell, HbF ELISA, day 7 EPCs, 5 days; read-out: EPC ELISA (pEC50 category) (converted). In kind it is cell-based, human. The procedure, abridged:
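Read-out was OD450 from an HRP/TMB sandwich ELISA on lysates, normalized to DMSO-only control wells. Thawed day 7 EPCs from human marrow CD34+ cells had been treated for 5 days at 37° C with Compound A, 22 concentrations […].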

Experiment [2] has as its target DNMT1 (Homo sapiens, UniProt P26358). The experiment in a line: DNMT1 biochemical activity, breaklight assay and/or SPA assay.
Setting [3] is: binned activity in either the breaklight or the SPA assay.
Where [4] appears, read: binned activity in either the breaklight or the SPA assay, read-out: DNMT1 BioChemical (pIC50 category) (converted).
Setting [5] is: breaklight assay and/or SPA assay, repeated experimental runs, read-out: average pIC50 against DNMT1 (converted).

SMILES strings stand for the structures. Several values for one entry are separate records, joined by “and”; a condition that tells them apart may be missing. Equal values may be shown once. Where a name gives a salt, the structure may show the parent alone. Read-outs that look alike come from different tables or passages of the source. Some results are limits rather than exact numbers.

Sequence of DNMT1 (P26358 whole entry, looked up): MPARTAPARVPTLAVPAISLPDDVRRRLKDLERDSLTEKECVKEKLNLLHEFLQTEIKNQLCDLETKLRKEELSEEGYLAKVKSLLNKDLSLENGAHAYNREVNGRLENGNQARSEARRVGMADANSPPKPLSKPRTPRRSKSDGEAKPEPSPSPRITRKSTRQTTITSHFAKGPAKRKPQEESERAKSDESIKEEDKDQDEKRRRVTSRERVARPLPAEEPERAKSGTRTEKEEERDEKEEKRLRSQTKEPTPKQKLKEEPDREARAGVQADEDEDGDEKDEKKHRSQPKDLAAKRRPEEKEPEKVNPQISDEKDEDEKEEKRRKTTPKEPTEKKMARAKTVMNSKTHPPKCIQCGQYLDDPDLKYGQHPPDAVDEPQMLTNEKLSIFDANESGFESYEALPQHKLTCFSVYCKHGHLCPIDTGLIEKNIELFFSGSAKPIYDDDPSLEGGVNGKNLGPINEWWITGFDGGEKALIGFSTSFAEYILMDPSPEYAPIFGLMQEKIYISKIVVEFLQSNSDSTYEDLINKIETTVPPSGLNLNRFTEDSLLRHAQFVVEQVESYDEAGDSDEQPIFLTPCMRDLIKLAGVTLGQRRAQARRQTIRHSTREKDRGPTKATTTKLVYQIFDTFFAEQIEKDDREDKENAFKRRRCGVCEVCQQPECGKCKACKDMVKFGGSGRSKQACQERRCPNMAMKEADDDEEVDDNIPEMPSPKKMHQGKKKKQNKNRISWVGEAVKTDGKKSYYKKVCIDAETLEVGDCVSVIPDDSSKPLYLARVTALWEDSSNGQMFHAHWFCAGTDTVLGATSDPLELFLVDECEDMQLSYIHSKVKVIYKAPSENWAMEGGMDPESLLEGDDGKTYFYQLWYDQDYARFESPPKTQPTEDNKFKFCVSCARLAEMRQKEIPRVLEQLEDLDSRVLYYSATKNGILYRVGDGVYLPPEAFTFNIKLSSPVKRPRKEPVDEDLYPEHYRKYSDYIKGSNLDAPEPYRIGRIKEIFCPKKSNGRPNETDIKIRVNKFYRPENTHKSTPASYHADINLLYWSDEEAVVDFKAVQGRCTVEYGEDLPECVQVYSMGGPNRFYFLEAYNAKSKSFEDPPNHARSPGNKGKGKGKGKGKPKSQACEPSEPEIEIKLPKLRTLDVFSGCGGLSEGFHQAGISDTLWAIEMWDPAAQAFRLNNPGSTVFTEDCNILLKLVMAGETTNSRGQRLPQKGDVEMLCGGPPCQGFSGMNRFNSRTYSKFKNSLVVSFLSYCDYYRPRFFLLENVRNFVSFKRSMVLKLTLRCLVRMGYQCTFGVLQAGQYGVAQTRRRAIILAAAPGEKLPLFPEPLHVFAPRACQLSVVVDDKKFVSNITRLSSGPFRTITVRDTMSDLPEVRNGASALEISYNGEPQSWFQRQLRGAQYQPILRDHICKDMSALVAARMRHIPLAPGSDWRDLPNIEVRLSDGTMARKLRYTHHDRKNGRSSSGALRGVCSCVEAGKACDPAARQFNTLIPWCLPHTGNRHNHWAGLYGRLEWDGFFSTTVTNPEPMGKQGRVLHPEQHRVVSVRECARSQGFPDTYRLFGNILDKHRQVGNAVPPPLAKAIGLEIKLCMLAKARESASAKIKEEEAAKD

On to `N#Cc1c(SC(C(N)=O)c2ccccc2)nc(N2CC(NC(=O)CN)C2)c(C#N)c1C1CC1` (centres unmarked) [Example 610, 2-amino-N-(1-(6-((2-amino-2-oxo-1-phenylethyl)thio)-3,5-dicyano-4-cyclopropylpyridin-2-yl)azetidin-3-yl)acetamide], for which the EC50 in experiment [1] was 1000 to 31600 nM. The “DNMT1 BioChemical (pIC50 category)” value in experiment [2] (setting [3]) is recorded as “D (Category D: ≥6.5)”.
On to `CCc1c(C#N)c(SCc2ccc3[nH]cnc3c2)nc(N2CCCN(C)CC2)c1C#N` [Example 390, 2-(((1H-Benzo[d]imidazol-5-yl)methyl)thio)-4-ethyl-6-(4-methyl-1,4-diazepan-1-yl)pyridine-3,5-dicarbonitrile], for which, in experiment [1], the EC50 was 316 to 1000 nM. Also, the IC50 in experiment [2] (setting [4]) was 316 to 1000 nM.
`CCc1c(C#N)c(SC(C(N)=O)c2ccccc2)nc(N2CCN(C(=O)C3(N)COC3)CC2)c1C#N` (centres unmarked) [Example 139, 2-((6-(4-(3-Aminooxetane-3-carbonyl)piperazin-1-yl)-3,5-dicyano-4-ethylpyridin-2-yl)thio)-2-phenylacetamide, Formic Acid Salt]: the EC50 in experiment [1] is 316 to 1000 nM. The “DNMT1 BioChemical (pIC50 category)” value in experiment [2] (setting [3]) is “D (Category D: ≥6.5)”.
For the compound `CCc1c(C#N)c(SC(C(N)=O)c2ccccc2)nc(N2CCC(C3CCNC3)CC2)c1C#N` (centres unmarked) [Example 121, 2-((3,5-Dicyano-4-ethyl-6-(4-(pyrrolidin-3-yl)piperidin-1-yl)pyridin-2-yl)thio)-2-phenylacetamide; 2,2,2-trifluoroacetic acid], in experiment [1], the EC50 is 316 to 1000 nM. Besides, the “DNMT1 BioChemical (pIC50 category)” value in experiment [2] (setting [3]) is recorded as “D (Category D: ≥6.5)”. Also, the “average pIC50 against DNMT1” value in experiment [2] (breaklight assay and/or SPA assay, repeated experimental runs) is greater than 6.5.
`CCc1c(C#N)c(SC(C(N)=O)c2ccccc2)nc(N2CCC(NC(=O)OC(C)(C)C)C(F)(F)C2)c1C#N` (centres unmarked) [Example 383, tert-Butyl (1-(6-((2-amino-2-oxo-1-phenylethyl)thio)-3,5-dicyano-4-ethylpyridin-2-yl)-3,3-difluoropiperidin-4-yl) carbamate]: the EC50 in experiment [1] is 316 to 1000 nM. For the same compound, in experiment [2] (setting [3]), the “DNMT1 BioChemical (pIC50 category)” value is “D (Category D: ≥6.5)”.
`CCc1c(C#N)c(SCc2ccc(N(C)S(C)(=O)=O)cc2)nc(N(C)CCN(C)CCOC)c1C#N` [Example 461]: in experiment [1], the EC50 is less than 316 nM. Moreover, in experiment [2] (setting [3]), the “DNMT1 BioChemical (pIC50 category)” value was “D (Category D: ≥6.5)”.
`CCc1c(C#N)c(SCc2cnn(CC(O)CO)c2)nc(N2CCC(N)CC2)c1C#N` (centres unmarked) [Example 380, 2-(4-Aminopiperidin-1-yl)-6-(((1-(2,3-dihydroxypropyl)-1H-pyrazol-4-yl)methyl)thio)-4-ethylpyridine-3,5-dicarbonitrile, Hydrochloride]: the EC50 in experiment [1] is 1000 to 31600 nM. Moreover, in experiment [2] (setting [4]), the IC50 was 316 to 1000 nM.
Regarding `CCc1c(C#N)c(SC(C(N)=O)c2ccccc2)nc(N2CCN(Cc3cnsc3)CC2)c1C#N` (centres unmarked) [Example 197, 2-((3,5-Dicyano-4-ethyl-6-(4-(isothiazol-4-ylmethyl)piperazin-1-yl)pyridin-2-yl)thio)-2-phenylacetamide], the EC50 in experiment [1] was 316 to 1000 nM. Besides, the IC50 in experiment [2] (setting [4]) was 316 to 1000 nM.
In the case of `CCc1c(C#N)c(SC(C(N)=O)c2ccccc2)nc(N(C)CC(=O)NCC(C)(C)CO)c1C#N` (centres unmarked) [Example 685, 2-((6-((2-amino-2-oxo-1-phenylethyl)thio)-3,5-dicyano-4-ethylpyridin-2-yl)(methyl)amino)-N-(3-hydroxy-2,2-dimethylpropyl)acetamide], in experiment [1], the EC50 was 316 to 1000 nM. In addition, the “DNMT1 BioChemical (pIC50 category)” value in experiment [2] (setting [3]) is “D (Category D: ≥6.5)”. For the same compound, the IC50 in experiment [2] (setting [5]) was 316 to 1000 nM and 316 nM.
With `CCc1c(C#N)c(SC(C(N)=O)c2ccccc2)nc(N2CCC(C)(NCC(F)F)CC2)c1C#N` (centres unmarked) [Example 232], the EC50 in experiment [1] was 316 to 1000 nM. The IC50 in experiment [2] (setting [4]) was 316 to 1000 nM.
As for `CCc1c(C#N)c(SC(C(N)=O)c2ccccc2)nc(N(C)CC(=O)N2CC[C@H](O)C2)c1C#N` (stereo partly drawn) [Example 616, 2-((3,5-dicyano-4-ethyl-6-((2-((S)-3-hydroxypyrrolidin-1-yl)-2-oxoethyl)(methyl)amino)pyridin-2-yl)thio)-2-phenylacetamide], in experiment [1], the EC50 is less than 316 nM. Further, in experiment [2] (setting [3]), the “DNMT1 BioChemical (pIC50 category)” value is recorded as “D (Category D: ≥6.5)”.
Regarding `CCc1c(C#N)c(SCc2ccc(S(N)(=O)=O)cc2)nc(N2CCC(NC(=O)CN)CC2)c1C#N` [Example 339, 2-Amino-N-(1-(3,5-dicyano-4-ethyl-6-((4-sulfamoylbenzyl)thio)pyridin-2-yl)piperidin-4-yl)acetamide hydrochloride], the EC50 in experiment [1] was 1000 to 31600 nM. Further, the “DNMT1 BioChemical (pIC50 category)” value in experiment [2] (setting [3]) was “D (Category D: ≥6.5)”.
Turning to `CCc1c(C#N)c(SC(C(N)=O)c2ccccc2)nc(N2CCN(Cc3cnoc3)CC2)c1C#N` (centres unmarked) [Example 185], the EC50 in experiment [1] is 316 to 1000 nM. Moreover, the IC50 in experiment [2] (setting [4]) is 316 to 1000 nM.
For `CCc1c(C#N)c(SC(C(N)=O)c2ccccc2)nc(N2CCC(NC)C2)c1C#N` (centres unmarked) [Example 521, 2-((3,5-dicyano-4-ethyl-6-(3-(methylamino)pyrrolidin-1-yl)pyridin-2-yl)thio)-2-phenylacetamide], the EC50 in experiment [1] was less than 316 nM. For the same compound, the “DNMT1 BioChemical (pIC50 category)” value in experiment [2] (setting [3]) is given as “D (Category D: ≥6.5)”.
`CCc1c(C#N)c(SCc2ccc(-c3ccncc3)cc2)nc(N2CCC(N3CCCC3)CC2)c1C#N` [Example 338, 4-Ethyl-2-((4-(pyridin-4-yl)benzyl)thio)-6-(4-(pyrrolidin-1-yl)piperidin-1-yl)pyridine-3,5-dicarbonitrile]: the EC50 in experiment [1] was greater than 31600 nM. The IC50 in experiment [2] (setting [4]) is 316 to 1000 nM.
With `CCc1c(C#N)c(SCc2ccccc2)nc(N2CCC(NC(=O)CN)CC2)c1C#N` [Example 94, 2-Amino-N-(1-(6-(benzylthio)-3,5-dicyano-4-ethylpyridin-2-yl)piperidin-4-yl)acetamide, Trifluoroacetic Acid Salt], the EC50 in experiment [1] is greater than 31600 nM. Moreover, the IC50 in experiment [2] (setting [4]) is 316 to 1000 nM.
For `CCc1c(C#N)c(SC(C(N)=O)c2ccccc2)nc(N2CCOC(CN(C)C)C2)c1C#N` (centres unmarked) [Example 558, 2-((3,5-dicyano-6-(2-((dimethylamino)methyl)morpholino)-4-ethylpyridin-2-yl)thio)-2-phenylacetamide], the EC50 in experiment [1] is less than 316 nM. Further, the “DNMT1 BioChemical (pIC50 category)” value in experiment [2] (setting [3]) was “D (Category D: ≥6.5)”.
In the case of `CCc1c(C#N)c(SC(C(N)=O)c2ccccc2)nc(N2CCN(C(=O)C3(N)CCOCC3)CC2)c1C#N` (centres unmarked) [Example 141, 2-((6-(4-(4-Aminotetrahydro-2H-pyran-4-carbonyl)piperazin-1-yl)-3,5-dicyano-4-ethylpyridin-2-yl)thio)-2-phenylacetamide, Trifluoroacetic Acid Salt], the EC50 in experiment [1] was less than 316 nM. Also, in experiment [2] (setting [3]), the “DNMT1 BioChemical (pIC50 category)” value was “D (Category D: ≥6.5)”.
`CCc1c(C#N)c(SCc2ccc3c(c2)C(=O)C(=O)N3)nc(N2CCCN(C)CC2)c1C#N` [Example 348, 2-(((2,3-Dioxoindolin-5-yl)methyl)thio)-4-ethyl-6-(4-methyl-1,4-diazepan-1-yl)pyridine-3,5-dicarbonitrile]: the EC50 in experiment [1] was greater than 31600 nM. In addition, the IC50 in experiment [2] (setting [4]) is 316 to 1000 nM.
With `CCc1c(C#N)c(SC(C(N)=O)c2c(F)cccc2F)nc(N2CC[C@H](O)C2)c1C#N` (some centres unmarked) [Example 428], the EC50 in experiment [1] is 316 to 1000 nM. In experiment [2] (setting [4]), the IC50 is 316 to 1000 nM.
Take `CCc1c(C#N)c(S[C@@H](C(N)=O)c2ccccc2)nc(N2CC[C@@H](NC(=O)OC(C)(C)C)[C@@H](O)C2)c1C#N` [Example 533, tert-butyl ((3S,4R)-1-(6-(((R)-2-amino-2-oxo-1-phenylethyl)thio)-3,5-dicyano-4-ethylpyridin-2-yl)-3-hydroxypiperidin-4-yl)carbamate]: in experiment [1], the EC50 is less than 316 nM. The “DNMT1 BioChemical (pIC50 category)” value in experiment [2] (setting [3]) is reported as “D (Category D: ≥6.5)”.
Take `CCc1c(C#N)c(SC(C(N)=O)c2ccc(S(=O)(=O)NC)cc2)nc(N2CCCN(C)CC2)c1C#N` (centres unmarked) [Example 378]: in experiment [1], the EC50 was 1000 to 31600 nM. For the same compound, the IC50 in experiment [2] (setting [4]) is 316 to 1000 nM.
`CCc1c(C#N)c(SC(C(N)=O)c2ccccc2)nc(N(C)CC(=O)N2CCC(O)CC2)c1C#N` (centres unmarked) [Example 621, 2-((3,5-dicyano-4-ethyl-6-((2-(4-hydroxypiperidin-1-yl)-2-oxoethyl)(methyl)amino)pyridin-2-yl)thio)-2-phenylacetamide]: the EC50 in experiment [1] was less than 316 nM. The “DNMT1 BioChemical (pIC50 category)” value in experiment [2] (setting [3]) is given as “D (Category D: ≥6.5)”.
Turning to `CCc1c(C#N)c(SCc2ccc(N(C)S(C)(=O)=O)cc2)nc(N(C)CCNCCF)c1C#N` [Example 500], the EC50 in experiment [1] was 1000 to 31600 nM. For the same compound, the “DNMT1 BioChemical (pIC50 category)” value in experiment [2] (setting [3]) is “D (Category D: ≥6.5)”.
For the compound `CCc1c(C#N)c(SC(C(N)=O)c2ccccc2)nc(N2CCC(NCC(C)(C)O)CC2)c1C#N` (centres unmarked) [Example 447, 2-((3,5-dicyano-4-ethyl-6-(4-((2-hydroxy-2-methylpropyl)amino)piperidin-1-yl)pyridin-2-yl)thio)-2-phenylacetamide], in experiment [1], the EC50 was less than 316 nM. Moreover, the “DNMT1 BioChemical (pIC50 category)” value in experiment [2] (setting [3]) is listed as “D (Category D: ≥6.5)”.
Consider `CCc1c(C#N)c(SCc2ccc(/C=C/C(=O)O)cc2)nc(N(C)C)c1C#N` [Example 102, (E)-3-(4-(((3,5-Dicyano-6-(dimethylamino)-4-ethylpyridin-2-yl)thio)methyl)phenyl)acrylic acid, Trifluoroacetic Acid Salt], for which the EC50 in experiment [1] is greater than 31600 nM. In addition, the values for the IC50 in experiment [2] (setting [4]) and in experiment [2] (setting [5]) were 1000 to 31600 nM and no less than 1000 nM, respectively.
Take `CCc1c(C#N)c(SC(C(N)=O)c2cccc(F)c2F)nc(N2CC[C@H](O)C2)c1C#N` (some centres unmarked) [Example 429]: the EC50 in experiment [1] is 316 to 1000 nM. Besides, in experiment [2] (setting [4]), the IC50 was 316 to 1000 nM.
Consider `N#Cc1c(SC(C(N)=O)c2ccccc2)nc(N2CCC(NC(=O)CN)CC2)c(C#N)c1C1CC1` (centres unmarked) [Example 642, 2-amino-N-(1-(6-((2-amino-2-oxo-1-phenylethyl)thio)-3,5-dicyano-4-cyclopropylpyridin-2-yl)piperidin-4-yl)acetamide formate], for which the EC50 in experiment [1] was 1000 to 31600 nM. Besides, the “DNMT1 BioChemical (pIC50 category)” value in experiment [2] (setting [3]) is given as “D (Category D: ≥6.5)”.

The values above are taken from patent publication US10975056B2 (GlaxoSmithKline Intellectual Property Development Limited, priority 2016, dated 2021).
